Laboratory results as given in patent US6335038B1, “Composition for the prevention and/or treatment of osteoporosis and alterations due to menopause syndrome” (Sigma-Tau Healthscience S.p.A., priority 1998, dated 2002).

What was measured:
[1] = test system: MC3T3 osteoblast-like cells; test: Osteoblastic cell growth tests; assay type: cell-based, mouse; details: 72-hour incubation; 0.05 mM carnitine, 0.005 mM isoflavones or genistein; versus controls
Experimental: In view of the important role played by osteoblasts in regulating growth and in bone remodelling, a series of tests was conducted to evaluate whether the presence of carnitines or isoflavonoids and genistein could influence the growth of osteoblastic cells in vitro.

[2] = Toxicological tests, single-dose administration, mice; details: single dose: carnitine mixture 600 mg/kg, propionyl L-carnitine 600 mg/kg, soy extract (5% isoflavones) 5 g/kg, genistein 15 mg/kg
serum osteocalcin = test: Evaluation of changes in serum osteocalcin concentration; assay type: in vivo, mice; details: for Osteocalcin, serum concentration: mice aged at least 7 months, daily with diet; for effect on serum osteocalcin concentrations (in words): mice, versus control animals
Experimental: There is a close correlation between changes in plasma levels of osteocalcin and bone tissue osteoblast activity, and a reduction in osteocalcin plasma levels is an indicator of […] osteoblast activity which appears to underlie osteoporosis in elderly subjects or in the postmenopausal period in women. These tests were performed on a batch of mice aged at least 7 months, divided into various groups of 10 mice each.
The treatment was administered daily for thirty days or sixty days consecutively.

[3] = test system: prostacyclin synthesis in rat peritoneal macrophages; test: Prostacyclin synthesis tests (PGI2 release by peritoneal macrophages from treated rats); assay type: in vivo; details: for effect on PGI2 synthesis in macrophages (in words): rats treated seven days, versus controls; for Macrophage PGI2 release values compared with controls: rats treated with diet for seven days (carnitine mixture 400 mg/kg, propionyl L-carnitine 400 mg/kg, soy extract 8 g/kg, genistein 40 mg/kg), carrageenin i.p. day 1, controls 0.25 ± 0.03
Experimental: The method used in these tests was the one described by G. R. Elliot in Brit. J. Nutrition, 64, 497, 1990, measuring the release of prostaglandins by peritoneal macrophages isolated from a batch of rats that were administered either the carnitine mixture, or the soy extract, or propionyl L-carnitine, or genistein, or various combinations of these products with their diet for seven days consecutively. The doses given were 400 mg/kg of carnitine mixture, or 400 mg/kg of propionyl L-carnitine, or 8 g/kg of soy extract, or 40 mg/kg of genistein, or the same doses of the various products combined. On day 1 of treatment, all the animals were treated intraperitoneally with 2 cm^3 of solution containing 2 mg of carrageenin. After the last day of treatment, peritoneal macrophages were isolated from the controls and treated rats so as to obtain a […] cell suspension.
One cm^3 of the macrophage preparation thus prepared was incubated for a period of two hours in order to evaluate the basal release or release after 30 minutes after being placed in contact with an ionophore such as […]. The cells were centrifuged and the supernatant analysed for its PGI2 content according to the radioimmunological assay method described by Zijstra et al. (Zijstra, F. J., Vincent, J. E., J. Chromatography, 311, 39, 1984).

[4] = Toxicological tests, single-dose administration, rats; details: single dose: carnitine mixture 600 mg/kg, propionyl L-carnitine 600 mg/kg, soy extract (5% isoflavones) 5 g/kg, genistein 15 mg/kg
[5] = duration of treatment 30 days, controls 120.4 ± 8.6
[6] = duration of treatment 60 days, controls 90.5 ± 7.9

Row | Compound | effect on growth of osteoblastic cells (in words) [1] | mortality or evident signs of toxicity after single dose [2] | Osteocalcin, serum concentration (serum osteocalcin; [5]) | Osteocalcin, serum concentration (serum osteocalcin; [6]) | effect on serum osteocalcin concentrations (in words) (serum osteocalcin) | effect on PGI2 synthesis in macrophages (in words) [3] | Macrophage PGI2 release values compared with controls [3] | mortality or evident signs of toxicity after single dose [4]
1 | O=c1c(-c2ccc(O)cc2)coc2cc(O)cc(O)c12 [Genistein, 4′,5,7-trihydroxyisoflavone] | neither the isoflavones nor genistein appear to influence the normal growth rate of the cells | without any mortality or evident signs of toxicity | 135.9 ± 10.2 ng/mL | 100.1 ± 10.2 ng/mL | capable of increasing the serum osteocalcin concentrations | only modest | 0.39 ± 0.27 ng/2 × 10^−6 cells | without any mortality or evident signs of toxicity
2 | CCC(=O)O[C@H](CC(=O)[O-])C[N+](C)(C)C [Propionyl L-carnitine, propionyl L-carnitine] | modest effect on the growth of cells | without any mortality or evident signs of toxicity | 130.7 ± 10.1 ng/mL | 98.5 ± 8.1 ng/mL | capable of increasing the serum osteocalcin concentrations | increase in PGI2 synthesis | 3.0 ± 0.22 ng/2 × 10^−6 cells | without any mortality or evident signs of toxicity
